# Source: patent US7851474B2, “Dipiperazinyl ketones and related analogues” (Neurogen Corporation, priority 2005, dated 2010)
# Biological target: T1, chimeric human H3 receptor (Homo sapiens, UniProt Q9Y5N1, E19D)
# T1 construct: made in house; host or cells: Sf9 insect cells (baculovirus infection); P2 membrane preparation
# Test: Chimeric human H3 receptor screening GTP binding assay (inhibition of histamine-stimulated GTP-gamma35S binding, Example 8)
# Assay type: biochemical
# Conditions: 1 h; "+" in Ki of Table II; assay of Example 8; read-out: percent inhibition of agonist-induced GTP-gammaS binding to H3
# In short: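 Data are percent inhibition of the 1 μM histamine-stimulated GTP-gamma35S (125 pM) binding, after non-specific binding (10 uM GTP-gammaS) is subtracted. Test compound at 4 μM. Incubation was 60 min at room temperature with Sf9 membranes bearing receptor plus G-protein subunits, buffer pH 7.4 with 10 μM GDP, and filtration read-out.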
# T1 sequence (Q9Y5N1 with tags, fused parts or gaps E19D): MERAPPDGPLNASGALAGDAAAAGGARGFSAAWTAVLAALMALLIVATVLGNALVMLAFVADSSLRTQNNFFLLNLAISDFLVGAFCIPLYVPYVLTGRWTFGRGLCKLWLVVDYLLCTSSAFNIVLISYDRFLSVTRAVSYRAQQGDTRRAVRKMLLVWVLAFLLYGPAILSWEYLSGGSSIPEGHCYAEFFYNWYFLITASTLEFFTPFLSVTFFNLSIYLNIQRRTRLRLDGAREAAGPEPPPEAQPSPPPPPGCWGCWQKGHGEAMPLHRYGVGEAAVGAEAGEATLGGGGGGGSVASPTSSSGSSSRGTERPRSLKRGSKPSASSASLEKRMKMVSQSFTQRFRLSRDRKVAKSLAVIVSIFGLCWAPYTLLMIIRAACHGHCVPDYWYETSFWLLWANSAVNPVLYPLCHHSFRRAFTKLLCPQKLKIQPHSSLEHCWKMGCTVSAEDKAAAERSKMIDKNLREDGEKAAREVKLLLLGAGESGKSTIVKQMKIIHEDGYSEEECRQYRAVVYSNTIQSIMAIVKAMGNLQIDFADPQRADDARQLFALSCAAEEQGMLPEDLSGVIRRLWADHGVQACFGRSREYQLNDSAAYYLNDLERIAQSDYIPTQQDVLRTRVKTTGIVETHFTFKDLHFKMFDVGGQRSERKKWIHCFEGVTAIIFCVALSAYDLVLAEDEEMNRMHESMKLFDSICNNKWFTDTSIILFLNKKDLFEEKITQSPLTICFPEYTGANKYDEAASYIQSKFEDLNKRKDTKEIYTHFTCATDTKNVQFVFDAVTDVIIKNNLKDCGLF
row,SMILES,inhibition at 4 µM [%]
1,"O=C(Cc1ccc(Oc2ccccc2)cc1)N1CCN(CC(=O)N2CCN(C3CCC3)CC2)CC1 [Compound 567, 1-cyclobutyl-4-({4-[(4-phenoxyphenyl)acetyl]piperazin-1-yl}acetyl)piperazine]",> 90
2,"CCc1ccc(C(=O)N2CCN(CC(=O)N3CCN(C4CCC4)CC3)CC2)s1 [Compound 568, 1-cyclobutyl-4-({4-[(5-ethyl-2-thienyl)carbonyl]piperazin-1-yl}acetyl)piperazine]",> 90
3,"Cc1c(C(=O)N2CCN(CC(=O)N3CCN(C4CCC4)CC3)CC2)cnn1-c1ccccc1 [Compound 569, 1-cyclobutyl-4-({4-[(5-methyl-1-phenyl-1H-pyrazol-4-yl)carbonyl]piperazin-1-yl}acetyl)piperazine]",> 90
4,"Cc1ccc(C(=O)N2CCN(CC(=O)N3CCN(C4CCC4)CC3)CC2)s1 [Compound 570, 1-cyclobutyl-4-({4-[(5-methyl-2-thienyl)carbonyl]piperazin-1-yl}acetyl)piperazine]",> 90
5,"CC(Oc1ccc(Cl)cc1Cl)C(=O)N1CCN(CC(=O)N2CCN(C3CCC3)CC2)CC1 (centres unmarked) [Compound 572, 1-cyclobutyl-4-({4-[2-(2,4-dichlorophenoxy)propanoyl]piperazin-1-yl}acetyl)piperazine]",> 90

# Same assay, conditions: 1 h; Table II, "+" in the column headed Ki; assay of Example 8; read-out: percent inhibition of agonist-induced GTP-gammaS binding to H3
row,SMILES,inhibition at 4 µM [%]
1,"O=C(CN1CCN(C(=O)c2ccccc2CCc2ccccc2)CC1)N1CCN(C2CCC2)CC1 [Compound 574, 1-cyclobutyl-4-({4-[2-(2-phenylethyl)benzoyl]piperazin-1-yl}acetyl)piperazine]",> 90
2,"CCC(C(=O)N1CCN(CC(=O)N2CCN(C3CCC3)CC2)CC1)c1ccc(OC)cc1 (centres unmarked) [Compound 575, 1-cyclobutyl-4-({4-[2-(4-methoxyphenyl)butanoyl]piperazin-1-yl}acetyl)piperazine]",> 90
3,Cc1ccc(Oc2ccccc2C(=O)N2CCN(CC(=O)N3CCN(C4CCC4)CC3)CC2)cc1 [Compound 576],> 90
4,"CSc1ccccc1C(=O)N1CCN(CC(=O)N2CCN(C3CCC3)CC2)CC1 [Compound 577, 1-cyclobutyl-4-({4-[2-(methylthio)benzoyl]piperazin-1-yl}acetyl)piperazine]",> 90
5,"O=C(CN1CCN(C(=O)c2ccccc2OC(F)(F)F)CC1)N1CCN(C2CCC2)CC1 [Compound 578, 1-cyclobutyl-4-({4-[2-(trifluoromethoxy)benzoyl]piperazin-1-yl}acetyl)piperazine]",> 90
6,"O=C(CN1CCN(C(=O)c2ccccc2C(F)(F)F)CC1)N1CCN(C2CCC2)CC1 [Compound 579, 1-cyclobutyl-4-({4-[2-(trifluoromethyl)benzoyl]piperazin-1-yl}acetyl)piperazine]",> 90
7,O=C(CN1CCN(C(=O)c2c(F)cccc2C(F)(F)F)CC1)N1CCN(C2CCC2)CC1 [Compound 582],> 90
8,"O=C(CN1CCN(C(=O)c2cccc(C(F)(F)F)c2)CC1)N1CCN(C2CCC2)CC1 [Compound 588, 1-cyclobutyl-4-({4-[3-(trifluoromethyl)benzoyl]piperazin-1-yl}acetyl)piperazine]",> 90
9,"Cc1ccccc1C(C(=O)N1CCN(CC(=O)N2CCN(C3CCC3)CC2)CC1)C(C)C (centres unmarked) [Compound 591, 1-cyclobutyl-4-({4-[3-methyl-2-(2-methylphenyl)butanoyl]piperazin-1-yl}acetyl)piperazine]",> 90
10,"O=C(CN1CCN(C(=O)c2ccc(OC(F)F)cc2)CC1)N1CCN(C2CCC2)CC1 [Compound 596, 1-cyclobutyl-4-({4-[4-(difluoromethoxy)benzoyl]piperazin-1-yl}acetyl)piperazine]",> 90
11,"CCSc1ccc(C(=O)N2CCN(CC(=O)N3CCN(C4CCC4)CC3)CC2)cc1 [Compound 598, 1-cyclobutyl-4-({4-[4-(ethylthio)benzoyl]piperazin-1-yl}acetyl)piperazine]",> 90
12,"CSc1ccc(C(=O)N2CCN(CC(=O)N3CCN(C4CCC4)CC3)CC2)cc1 [Compound 600, 1-cyclobutyl-4-({4-[4-(methylthio)benzoyl]piperazin-1-yl}acetyl)piperazine]",> 90
13,"O=C(CN1CCN(C(=O)c2ccc(C(F)(F)F)cc2)CC1)N1CCN(C2CCC2)CC1 [Compound 605, 1-cyclobutyl-4-({4-[4-(trifluoromethyl)benzoyl]piperazin-1-yl}acetyl)piperazine]",> 90
14,"O=C(CN1CCN(C(=O)c2ccc(Oc3cc(Cl)cc(Cl)c3)o2)CC1)N1CCN(C2CCC2)CC1 [Compound 608, 1-cyclobutyl-4-({4-[5-(3,5-dichlorophenoxy)-2-furoyl]piperazin-1-yl}acetyl)piperazine]",> 90
15,"O=C(CN1CCN(C(=O)C(c2ccccc2)C2CCCCC2)CC1)N1CCN(C2CCC2)CC1 (centres unmarked) [Compound 612, 1-cyclobutyl-4-({4-[cyclohehexyl(phenyl)acetyl]piperazin-1-yl}acetyl)piperazine]",> 90
16,"O=C(CN1CCN(C(=O)C(c2ccccc2)C2CCCC2)CC1)N1CCN(C2CCC2)CC1 (centres unmarked) [Compound 613, 1-cyclobutyl-4-({4-[cyclopentyl(phenyl)acetyl]piperazin-1-yl}acetyl)piperazine]",> 90
17,"O=C(/C=C/c1ccccc1C(F)(F)F)N1CCN(CC(=O)N2CCN(C3CCC3)CC2)CC1 [Compound 614, 1-cyclobutyl-4-[(4-{(2E)-3-[2-(trifluoromethyl)phenyl]prop-2-enoyl}piperazin-1-yl)acetyl]piperazine]",> 90

row,SMILES,inhibition at 4 µM [%]
1,"O=C(/C=C/c1cccc(C(F)(F)F)c1)N1CCN(CC(=O)N2CCN(C3CCC3)CC2)CC1 [Compound 615, 1-cyclobutyl-4-[(4-{(2E)-3-[3-(trifluoromethyl)phenyl]prop-2-enoyl}piperazin-1-yl)acetyl]piperazine]",> 90
2,"O=C(/C=C/c1ccc(C(F)(F)F)cc1)N1CCN(CC(=O)N2CCN(C3CCC3)CC2)CC1 [Compound 616, 1-cyclobutyl-4-[(4-{(2E)-3-[4-(trifluoromethyl)phenyl]prop-2-enoyl}piperazin-1-yl)acetyl]piperazine]",> 90
3,"Cc1ccc(Oc2ncccc2C(=O)N2CCN(CC(=O)N3CCN(C4CCC4)CC3)CC2)c(C)c1 [Compound 617, 1-cyclobutyl-4-[(4-{[2-(2,4-dimethylphenoxy)pyridin-3-yl]carbonyl}piperazin-1-yl)acetyl]piperazine]",> 90
4,"CCSc1ncccc1C(=O)N1CCN(CC(=O)N2CCN(C3CCC3)CC2)CC1 [Compound 618, 1-cyclobutyl-4-[(4-{[2-(ethylthio)pyridin-3-yl]carbonyl}piperazin-1-yl)acetyl]piperazine]",> 90
5,CSc1ncccc1C(=O)N1CCN(CC(=O)N2CCN(C3CCC3)CC2)CC1 [Compound 619],> 90
6,"O=C(CN1CCN(C(=O)c2cccnc2Sc2ccccc2)CC1)N1CCN(C2CCC2)CC1 [Compound 620, 1-cyclobutyl-4-[(4-{[2-(phenylthio)pyridin-3-yl]carbonyl}piperazin-1-yl)acetyl]piperazine]",> 90
7,"O=C(Cc1ccccc1OC(F)(F)F)N1CCN(CC(=O)N2CCN(C3CCC3)CC2)CC1 [Compound 621, 1-cyclobutyl-4-[(4-{[2-(trifluoromethoxy)phenyl]acetyl}piperazin-1-yl)acetyl]piperazine]",> 90
8,"O=C(Cc1ccccc1C(F)(F)F)N1CCN(CC(=O)N2CCN(C3CCC3)CC2)CC1 [Compound 622, 1-cyclobutyl-4-[(4-{[2-(trifluoromethyl)phenyl]acetyl}piperazin-1-yl)acetyl]piperazine]",> 90
9,"O=C(Cc1cccc(C(F)(F)F)c1F)N1CCN(CC(=O)N2CCN(C3CCC3)CC2)CC1 [Compound 623, 1-cyclobutyl-4-[(4-{[2-fluoro-3-(trifluoromethyl)phenyl]acetyl}piperazin-1-yl)acetyl]piperazine]",> 90
10,"Cc1onc(-c2c(Cl)cccc2Cl)c1C(=O)N1CCN(CC(=O)N2CCN(C3CCC3)CC2)CC1 [Compound 624, 1-cyclobutyl-4-[(4-{[3-(2,6-dichlorophenyl)-5-methylisoxazol-4-yl]carbonyl}piperazin-1-yl)acetyl]piperazine]",> 90
11,"CSc1sc(C(=O)N2CCN(CC(=O)N3CCN(C4CCC4)CC3)CC2)c2c1C=CCC2 [Compound 625, 1-cyclobutyl-4-[(4-{[3-(methylthio)-6,7-dihydro-2-benzothien-1-yl]carbonyl}piperazin-1-yl)acetyl]piperazine]",> 90
12,"O=C(Cc1cccc(OC(F)(F)F)c1)N1CCN(CC(=O)N2CCN(C3CCC3)CC2)CC1 [Compound 626, 1-cyclobutyl-4-[(4-{[3-(trifluoromethoxy)phenyl]acetyl}piperazin-1-yl)acetyl]piperazine]",> 90
13,"O=C(Cc1cccc(C(F)(F)F)c1)N1CCN(CC(=O)N2CCN(C3CCC3)CC2)CC1 [Compound 627, 1-cyclobutyl-4-[(4-{[3-(trifluoromethyl)phenyl]acetyl}piperazin-1-yl)acetyl]piperazine]",> 90
14,"CSc1ccc(CC(=O)N2CCN(CC(=O)N3CCN(C4CCC4)CC3)CC2)cc1 [Compound 628, 1-cyclobutyl-4-[(4-{[4-(methylthio)phenyl]acetyl}piperazin-1-yl)acetyl]piperazine]",> 90
15,"O=C(COc1ccc(OC(F)(F)F)cc1)N1CCN(CC(=O)N2CCN(C3CCC3)CC2)CC1 [Compound 629, 1-cyclobutyl-4-[(4-{[4-(trifluoromethoxy)phenoxy]acetyl}piperazin-1-yl)acetyl]piperazine]",> 90
16,"O=C(Cc1ccc(OC(F)(F)F)cc1)N1CCN(CC(=O)N2CCN(C3CCC3)CC2)CC1 [Compound 630, 1-cyclobutyl-4-[(4-{[4-(trifluoromethoxy)phenyl]acetyl}piperazin-1-yl)acetyl]piperazine]",> 90
